Laboratory results reported in patent publication US7507860B2 (Pfizer Inc., priority 2004, dated 2009).

Key:
[1] = test system: male Syrian hamsters, ear sebaceous glands; assay: Animal model for inhibition of sebum production (hamster ear, HPLC of sebum lipids); type: in vivo, Syrian hamster; conditions: 4 weeks; for % Reduction in CE (cholesterol ester) / % Reduction in WE (wax ester): 3-w/v % topical to ears twice daily, five days a week, difference from vehicle control; for Sum CE + WE: summation of % reduction in CE and WE, 3-w/v % topical
Procedure: Luderschmidt et al describes an animal model for testing whether compounds are capable of modulating sebum secretion. Arch. Derm. Res. 258, 185-191 (1977). This model uses male Syrian hamsters, whose ears contain sebaceous glands. The products of Example 1 and 4 were screened in this model.
Testing for sebum inhibition was carried out in the following manner. Male Syrian hamsters aged 9 to 10 weeks were introduced into the laboratory environment and acclimated for 2 weeks prior to use in the study. Each group consisted of 5 animals and run in parallel with vehicle and positive controls. Prior to administration, 30 mg of each compound was dissolved in 1 mL of a solvent consisting of transcutanol, ethanol, and propylene glycol (20/60/20% v/v) to achieve a final concentration of 3-w/v %.
Animals were dosed topically twice daily, five days a week, for 4 weeks. Each dose consisted of 25 micro liters of vehicle control or drug. The dose was applied to the ventral surfaces of both the right and left ears. All animals were sacrificed approximately 18-24 hours after the final dose. The right ears were collected from each animal and used for sebum analysis.
The ears were prepped for HPLC analysis in the following manner. One 8 mm distal biopsy punch was taken, just above the anatomical “V” mark in the ear to normalize the sample area. The punch was pulled apart. The ventral biopsy surface (the area where the topical dose was directly applied to the sebaceous glands) was retained for testing and the dorsal surface of the biopsy punch was discarded.
Tissue samples were blown with N2 gas and stored at −80° C. under nitrogen until HPLC analysis. In addition to ear samples, an aliquot of each drug and vehicle (at least 250 ul) was also stored at −80° C. for inclusion in the HPLC analysis.
HPLC analysis was carried out on an extract of the tissue sample. Tissue samples were contacted with 3 ml of solvent (a 4:1 admixture of 2,2,4-trimethylpentane and isopropyl alcohol). The mixture was shaken for 15 minutes and stored overnight at room temperature, protected from light. The next morning 1 milliliter of water was added to the sample and shaken for 15 minutes. The sample was then centrifuged at approximately 1500 rpm for 15 minutes. Two ml of the organic phase (top layer) was transferred to a glass vial, dried at 37° C., under nitrogen, for approximately 1 hour, and then lyophilized for approximately 48 hours. The samples were then removed from the lyophilizer and each vial was reconstituted with 600 μl of solvent A (trimethylpentane/tetrahydrofuran (99:1). The samples were then recapped and vortexed for 5 minutes.
200 μl of each sample was then transferred to a pre-labeled 200 μl HPLC vial with 200 μL glass inserts. The HPLC vials were placed in the autosampler tray for the Agilent 1100 series HPLC unit. The Agilent 1100 HPLC system consisted of a thermostated autosampler, a quarternary pump, a column heater, and an A/D interface module. All components were controlled by Agilent ChemStation software. A Waters Spherisorb S3W 4.6×100 mm analytical column was maintained at 30° C. by the Agilent column heater unit. The HPLC autosampler was programmed to maintain the sample temperature at 20 C throughout the run.
10 uL of each sample was injected in triplicate into the column. Two solvents were used for the solvent gradient. Solvent A was an admixture of trimethylpentane and tetrahydrofuran (99:1). Solvent B was ethylacetate. The gradient utilized is described in the table below: […]
The Sedex 75 Evaporative Light Scattering Detector (ELSD) was operated at 45° C. with a gain of 5, and N2 pressure maintained at 3.1 bar. Analog signal obtained by the instrument was sent to the Agilent A/D interface module where it was converted to a digital output. The conversion was based on a 10000-mAU/volt set point and the data rate was set at 10 Hz (0.03 min). The resulting digital output was then feed into the Agilent ChemStation software for integration of the peak area. […]

male C3H/HeN mice = assay: Modified telogen conversion assay (animal model for androgenetic alopecia); type: in vivo, mouse; conditions: 3 w/v % topical, twice daily for 4 weeks
Text: It has been discovered that male C3H/HeN mice may be used in the telogen conversion assay, when evaluating anti-androgen test compounds. Thus, the model relates to a modification of the existing telogen conversion assay. Male C3H/HeN mice approximately 7 weeks old are utilized. These animals are also uniformly in telogen, like their female counterparts. However, once shaven, the androgens inherently present in these male mice inhibit the conversion of the hair follicles to the anagen phase. An anti-androgen will block this androgenic effect and the follicles will convert to anagen, like their female counterparts.
The compound described in Example 1 was submitted for further testing utilizing the modified telogen conversion assay, described above. The testing was carried out in the following manner.
Male C3H/HeN mice, 6 to 7 weeks old (Charles River Laboratories, Raleigh, N.C.) were used for the study. Fur was clipped from the dorsal region of the mice prior to initiation of the study. Only mice with pink skin, a visual indication of the telogen phase, were selected for inclusion in the study. […]
The treatment area was observed and graded every other day for signs of hair growth. The hair growth response was quantified by recording, for each animal, the day on which signs of hair growth first appeared over the treated area. […]

## CCCC(Oc1ccc(C#N)c(C(F)(F)F)c1)C(=O)NCc1ccccc1 (stereo not shown) [Example 4, 2-(4-Cyano-3-trifluoromethyl-phenoxy)-pentanoic acid benzylamide]
[1]
  % Reduction in CE (cholesterol ester): 15%
  % Reduction in WE (wax ester): 31%
  Sum CE + WE: 46%
Male C3H/HeN mice
  Induction of anagen (first signs of hair growth) versus vehicle control: Anagen did not occur in the test group prior to its initiation in the vehicle control group

## CC(C)CC(Oc1ccc(C#N)c(C(F)(F)F)c1)C(=O)NCc1ccccc1 (stereo not shown) [Example 1, 2-(4-Cyano-3-trifluoromethyl-phenoxy)-4-methyl-pentanoic acid benzylamide]
[1]
  % Reduction in CE (cholesterol ester): 32%
  % Reduction in WE (wax ester): 52%
  Sum CE + WE: 84%
